Series [1] in a line: Drug concentration in Sprague-Dawley rat lung at 20 mg/kg,po administration measured upto 8 hrs by LC-MS/MS analysis. The class given is ADME, organism-based. As to conditions: in vivo.
The nature of series [2]: AUC (0 to infinity) in Sprague-Dawley rat at 1 mg/kg,iv administration measured upto 24 hrs by LC-MS/MS analysis. Particulars: in vivo. The class given is ADME, organism-based.
Series [3] relates to Mus musculus. The series is described as follows: Antiinflammatory activity in cecal ligation and puncture induced sepsis C57BL/6 mouse model assessed as reduction in IL-6 level in BALF at 20 mg/kg,po administrated with compound for 6 hrs followed by CLP induction and measured after 12 hrs by ELISA. The class given is functional, organism-based. As to conditions: time 18.0 hrs.

Series [4] concerns the target TLR4-MyD88 (Mus musculus) (UniProt Q9QUK6+P22366). Description: Inhibition of MYD88/TLR4 protein-protein interaction in LPS-induced mouse J774.A1 cells at 20 uM incubated for 2 hrs by coimmunoprecipitation analysis. The series is classed as cell-based.
Series [5] in a line: AUC (0 to t) in Sprague-Dawley rat at 1 mg/kg,iv administration measured upto 24 hrs by LC-MS/MS analysis. Particulars: in vivo. The series is classed as ADME, organism-based.
Series [6] in a line: AUC (0 to t) in Sprague-Dawley rat at 20 mg/kg,po administration measured upto 24 hrs by LC-MS/MS analysis. The class given is ADME, organism-based. Particulars: in vivo.
Series [7] relates to Mus musculus. The series is described as follows: Antiinflammatory activity in cecal ligation and puncture induced sepsis C57BL/6 mouse model assessed as reduction in TNF-alpha level in serum at 20 mg/kg,po administrated with compound for 6 hrs followed by CLP induction and measured after 12 hrs by ELISA. The class given is functional, organism-based. Particulars: time 18.0 hrs.

The nature of series [8]: Half life in Sprague-Dawley rat at 1 mg/kg,iv administration measured upto 24 hrs by LC-MS/MS analysis. The class given is ADME, organism-based. Particulars: in vivo.
Series [9] is described as follows: Acute toxicity in C57BL/6 mouse assessed as pathological change in lung at 500 mg/kg,po administration measured upto 11 days by hematoxylin and eosin staining based assay. The class given is organism-based. As to conditions: in vivo, 264 h, time < 11 day.
Series [10] deals with J774.A1. The series is described as follows: Inhibition of MAPK signalling pathway in LPS stimulated mouse J774.A1 cells assessed as downregulation of IRAK4 phosphorylation by Western blotting analysis. The series is classed as cell-based.
Series [11] deals with Mus musculus. Description: Antiinflammatory activity in cecal ligation and puncture induced sepsis C57BL/6 mouse model assessed as reduction in IL-6 mRNA level in lung at 20 mg/kg,po administrated with compound for 6 hrs followed by CLP induction and measured after 12 hrs by RT-PCR analysis. The class given is functional, organism-based. As to conditions: time 18.0 hrs.
Series [12] relates to Mus musculus. Description: Antiinflammatory activity in cecal ligation and puncture induced sepsis C57BL/6 mouse model assessed as reduction in inflammatory infiltration in lung at 20 mg/kg,po administrated with compound for 6 hrs followed by CLP induction and measured after 12 hrs by H and E staining based analysis. The series is classed as functional, organism-based. As to conditions: time 18.0 hrs.

Series [13] is described as follows: Half life in Sprague-Dawley rat at 20 mg/kg,po administration measured upto 24 hrs by LC-MS/MS analysis. The series is classed as ADME, organism-based. As to conditions: in vivo.
Series [14] concerns the target Toll-like receptor 4/Ly96 (Mus musculus) (UniProt Q9QUK6+Q9JHF9). The series is described as follows: Inhibition of MD2/TLR4 protein-protein interaction in LPS-induced mouse J774.A1 cells at 20 uM incubated for 2 hrs by coimmunoprecipitation analysis. The class given is cell-based.
Series [15] in a line: Stability of compound in rat serum measured upto 12 hrs. The series is classed as ADME, cell-free.
In series [16] the target is Myeloid differentiation primary response protein MyD88 (Homo sapiens, UniProt Q99836). The series is described as follows: Binding affinity to CM5 sensor chip immobilized human MyD88 TIR domain assessed as thermal stabilization at 10 uM incubated for 4 hrs by cellular thermal shift assay.
Myeloid differentiation primary response protein MyD88, sequence (Q99836 whole entry, the tested form may be a part): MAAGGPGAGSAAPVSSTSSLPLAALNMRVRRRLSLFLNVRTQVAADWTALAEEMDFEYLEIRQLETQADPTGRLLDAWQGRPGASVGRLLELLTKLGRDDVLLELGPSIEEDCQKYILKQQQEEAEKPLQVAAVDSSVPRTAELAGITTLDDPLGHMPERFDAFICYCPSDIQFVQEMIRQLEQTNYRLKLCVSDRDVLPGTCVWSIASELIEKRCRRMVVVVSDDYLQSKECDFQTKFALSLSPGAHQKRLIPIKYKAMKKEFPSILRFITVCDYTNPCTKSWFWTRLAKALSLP
For series [17], the system named is Mus musculus. The series is described as follows: Antiinflammatory activity in cecal ligation and puncture induced sepsis C57BL/6 mouse model assessed as reduction in IL-6 level in serum at 20 mg/kg,po administrated with compound for 6 hrs followed by CLP induction and measured after 12 hrs by ELISA. The class given is functional, organism-based. As to conditions: time 18.0 hrs.

In series [18] the test system is Mus musculus. The series is described as follows: Antiinflammatory activity against LPS induced acute lung injury C57BL/6 mouse model assessed as reduction in IL-6 level in BALF at 20 mg/kg,po administrated with compound for 30 mins followed by LPS treatment and measured after 6 hrs by ELISA. As to conditions: time 6.5 hrs. The class given is functional, organism-based.

For series [19], the system named is Mus musculus. Description: Antiinflammatory activity against LPS induced acute lung injury C57BL/6 mouse model assessed as reduction in of leukocytes in alveolar region at 20 mg/kg,po administrated with compound for 30 mins followed by LPS treatment and measured after 6 hrs by immunohistochemical staining based analysis. The series is classed as functional, organism-based.

For series [20], the system named is J774.A1. The series is described as follows: Inhibition of NF-kappaB signalling pathway in LPS-induced mouse J774.A1 cells assessed as downregulation of p65 phosphorylation by Western blotting analysis. The class given is cell-based.
Series [21] relates to Mus musculus. Description: Antiinflammatory activity in cecal ligation and puncture induced sepsis C57BL/6 mouse model assessed as reduction in cell effusion in BALF at 20 mg/kg,po administrated with compound for 6 hrs followed by CLP induction and measured after 12 hrs. The series is classed as functional, organism-based. As to conditions: time 18.0 hrs.
Series [22] deals with Mus musculus. Description: Antiinflammatory activity against LPS induced acute lung injury C57BL/6 mouse model assessed as reduction in TNF-alpha level in BALF at 20 mg/kg,po administrated with compound for 30 mins followed by LPS treatment and measured after 6 hrs by ELISA. The class given is functional, organism-based. Particulars: time 6.5 hrs.

The structures appear in SMILES notation. Calls of active or inactive are those of the source. The rule behind the calls is not given here.

TLR4-MyD88 (Mus musculus), sequence (P22366 whole entry, looked up): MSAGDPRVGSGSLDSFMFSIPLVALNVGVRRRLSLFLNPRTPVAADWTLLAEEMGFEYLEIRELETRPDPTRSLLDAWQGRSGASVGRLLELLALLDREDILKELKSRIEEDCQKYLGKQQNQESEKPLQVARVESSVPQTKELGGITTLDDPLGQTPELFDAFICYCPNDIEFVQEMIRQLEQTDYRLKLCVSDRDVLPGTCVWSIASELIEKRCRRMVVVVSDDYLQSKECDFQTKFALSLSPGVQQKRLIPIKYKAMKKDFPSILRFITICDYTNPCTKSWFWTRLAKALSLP
TLR4-MyD88 (Mus musculus), sequence (Q9QUK6 whole entry, looked up): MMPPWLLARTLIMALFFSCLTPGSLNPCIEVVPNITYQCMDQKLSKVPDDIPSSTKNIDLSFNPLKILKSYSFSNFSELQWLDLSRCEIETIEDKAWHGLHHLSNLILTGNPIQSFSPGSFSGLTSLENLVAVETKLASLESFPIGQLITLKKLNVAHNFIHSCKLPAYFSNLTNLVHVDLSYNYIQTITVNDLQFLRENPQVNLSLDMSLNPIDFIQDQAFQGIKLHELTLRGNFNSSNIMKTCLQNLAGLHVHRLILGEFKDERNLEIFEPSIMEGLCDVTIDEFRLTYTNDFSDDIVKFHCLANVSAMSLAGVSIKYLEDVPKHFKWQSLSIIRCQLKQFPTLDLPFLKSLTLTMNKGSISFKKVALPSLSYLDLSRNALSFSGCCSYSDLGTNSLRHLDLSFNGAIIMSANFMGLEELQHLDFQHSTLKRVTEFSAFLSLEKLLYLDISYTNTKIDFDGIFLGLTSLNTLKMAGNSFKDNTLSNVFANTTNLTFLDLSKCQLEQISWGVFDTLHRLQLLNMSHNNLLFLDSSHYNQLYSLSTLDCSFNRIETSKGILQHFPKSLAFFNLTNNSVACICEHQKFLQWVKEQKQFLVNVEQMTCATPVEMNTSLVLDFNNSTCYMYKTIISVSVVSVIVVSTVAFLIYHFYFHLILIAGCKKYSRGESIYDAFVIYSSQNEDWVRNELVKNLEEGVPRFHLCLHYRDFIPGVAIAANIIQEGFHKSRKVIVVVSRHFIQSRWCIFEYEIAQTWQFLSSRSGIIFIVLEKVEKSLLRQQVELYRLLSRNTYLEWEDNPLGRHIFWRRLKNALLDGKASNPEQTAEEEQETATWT

In the case of `O[C@H](COc1ccc(Br)cc1)CN1CCN(Cc2cc3ccccc3[nH]2)CC1`, the Drug uptake entry in series [1] was “Active”. In addition, the AUC(0-inf) in series [2] amounted to 698 ng·h/mL. In addition, the outcome (in the series with Mus musculus [3]; in the series on Mus musculus [7]; in the series with Mus musculus [11]; in the series with Mus musculus [12]; in series [16]; in the series on Mus musculus [17]) was Active. Further, the result with Mus musculus [18], with Mus musculus [19], in the series with Mus musculus [21] and in the series on Mus musculus [22] was Active. Besides, the inhibition entry (in [4]; in the series with J774.A1 [10]; in the series with J774.A1 [20]) was “Active” each time. Besides, the values for the AUC(0-t) at 24 h in series [5] and in series [6] were 691 ng·h/mL and 2860 ng·h/mL, respectively. Moreover, the half-life in series [8] was 1.39 h; in series [13], 4.44 h. In addition, the Activity entry in series [9] is reported as “Non-toxic”. Besides, in [14], the inhibition entry was “inactive”. Moreover, the Stability result in series [15] is “Stable”.

(Values after ChEMBL document CHEMBL6078688, “Discovery of Novel MyD88 Inhibitor A5S to Alleviate Acute Lung Injury with Favorable Drug-like Properties” (J Med Chem, 2024).)
